Reference: patent US20040038894A1, “Compounds for modulating cell negative regulations and biological applications thereof” (INSTITUT NATIONAL DE LA SANTE ET DE LA RECHERCHE MEDICALE …, priority 1996, published 2004)
Where a SMILES comes first, the peptide text is derived from it.

How the values were obtained:
GST-SHP-2.SH2(N + C) = target: T1, GST-SHP-2.SH2(N + C) (Mus musculus, UniProt P35235); assay: Surface plasmon resonance (BIAcore), SHP-2 tandem SH2 domains; type: binding, murine; details: for koff / kon: 25 RU phosphorylated peptide immobilized, 5 μl/min
T1 construct: Using recombinant soluble tandem SH2 domains of SHP-1 and SHP-2; made in house; host or cells: E. coli DH5α
T1 sequence (P35235 1-216 limits assumed): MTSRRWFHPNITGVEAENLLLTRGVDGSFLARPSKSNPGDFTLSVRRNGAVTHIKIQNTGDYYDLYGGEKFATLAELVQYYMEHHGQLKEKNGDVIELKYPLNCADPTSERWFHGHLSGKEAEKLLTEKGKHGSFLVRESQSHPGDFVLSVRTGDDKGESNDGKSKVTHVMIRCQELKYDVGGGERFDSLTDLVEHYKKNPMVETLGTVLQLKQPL
Protocol: (§1) Surface plasmon resonance measurements were performed on a BIAcore apparatus (BIAcore). The GST-SHP1.SH2(NC), GST-SHP2.SH2(NC) and GST-SHIP.SH2 fusion proteins generated from the murine phosphatase cDNAs, were purified from DH5α lysates as previously described. Before their use in BIAcore experiments, fusion proteins were dialyzed in HBS buffer pH 7.4 (10 mM HEPES, 150 mM NaCl, 3.4 mM EDTA). Protein purity was assessed by 12.5% SDS-PAGE, and Coomassie blue staining. The running buffer used in all BIAcore experiments consisted of HBS buffer supplemented with 0.05% surfactant P20. Equilibrium constant determination (koff and kon) was performed using BIAevaluation 2.0 software. The equilibrium dissociation constants KD were calculated from the koff/kon ratio.
(§2) Results are illustrated by FIG. 16 showing the BIAcore analysis of NKG2A ITIM interaction with the SH2 domains of SHP-1, SHP-2 and SHIP phosphatases. In FIG. 16, the binding of 100 nM soluble recombinant GST-SHP-1.SH2(N+C), GST-SHP-2.SH2(N+C) or GST-SHIP.SH2 to immobilized NKG2A/B phosphorylated ITIM peptides (25 RU) was monitored by real-time analysis using surface plasmon resonance. Results are expressed as corrected resonance units (CRU) corresponding to the raw RU values after subtraction of background RU value due to the injection medium.
(§3) The measurement of phosphorylated peptide binding to GST-SHP-1.SH2(N+C) and GST-SHP-2.SH2(N+C) fusion proteins was performed at a constant 5 μl/min flow rate. In this representative experiment, 25 RU of phosphorylated NKG2A N-term and NKG2A C-term peptides were immobilized on streptavidin microchips. The regeneration was performed using HBS buffer supplemented with 0.03% SDS. Results are expressed as corrected resonance units (CRU) corresponding to the raw RU values after subtraction of background RU value due to the injection medium, koff and kon were calculated from three independent measurements using the BIAevaluation 2.0 software. In addition, kon was calculated as the slope of the curve kg=kon×c−koff, where koff is the off-rate constant and c is the concentration of the soluble recombinant GST fusion proteins. By plotting kg as a function of c, a linear regression fit was obtained (r^2>0.98) for the binding of NKG2A ITIM N- and C-term to SHP-1 and SHP-2 tandem SH2 domains. This linear representation allows to check on the validity of the single step interaction and to confirm the determination of the kon constant using non-linear analysis (BIAevaluation software).

GST-SHP-1.SH2(N + C) = target: T2, GST-SHP-1.SH2(N + C) (Mus musculus, UniProt P29351); assay: Surface plasmon resonance (BIAcore), SHP-1 tandem SH2 domains; type: binding, murine; details: for koff / kon: 25 RU phosphorylated peptide immobilized, 5 μl/min
T2 construct: Using recombinant soluble tandem SH2 domains of SHP-1 and SHP-2; made in house; host or cells: E. coli DH5α
T2 sequence (P29351 1-213 limits assumed): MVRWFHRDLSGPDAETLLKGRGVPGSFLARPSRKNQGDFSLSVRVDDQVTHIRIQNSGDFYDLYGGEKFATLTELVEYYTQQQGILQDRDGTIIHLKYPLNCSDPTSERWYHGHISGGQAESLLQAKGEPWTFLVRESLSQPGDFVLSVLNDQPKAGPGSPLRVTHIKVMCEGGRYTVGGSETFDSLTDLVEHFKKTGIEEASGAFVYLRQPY
Protocol: as §1, §2, §3

[1] = target: human p58.2 KIR (CD158b), HLA-Cw3-specific killer-cell inhibitory receptor (human) (UniProt P43628); assay: cell-based or functional assay
[2] = calculated from the koff/kon ratio

Sequence of human p58.2 KIR (CD158b), HLA-Cw3-specific killer-cell inhibitory receptor (human) (P43628 22-341): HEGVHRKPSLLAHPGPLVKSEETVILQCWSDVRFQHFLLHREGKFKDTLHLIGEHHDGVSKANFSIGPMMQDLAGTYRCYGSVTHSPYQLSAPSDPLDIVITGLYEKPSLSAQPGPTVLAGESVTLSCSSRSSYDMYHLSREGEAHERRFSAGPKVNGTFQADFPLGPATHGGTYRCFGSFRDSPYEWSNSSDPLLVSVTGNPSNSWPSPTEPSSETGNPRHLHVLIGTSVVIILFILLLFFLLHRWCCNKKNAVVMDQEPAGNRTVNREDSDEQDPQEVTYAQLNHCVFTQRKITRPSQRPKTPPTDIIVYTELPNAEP

Molecule	koff (GST-SHP-2.SH2(N + C))	kon (GST-SHP-2.SH2(N + C))	koff (GST-SHP-1.SH2(N + C))	kon (GST-SHP-1.SH2(N + C))	Kd (GST-SHP-2.SH2(N + C); [2])	Kd (GST-SHP-1.SH2(N + C); [2])	inhibition of CD25/CD3 zeta-induced serotonin release, RTIIBp58 B clone (GL183 1 µg/ml, anti-hCD25 3 µg/ml) [1]	inhibition of CD25/CD3 zeta-induced serotonin release, clone with unusually high CD25/CD3 zeta (GL183 F(ab')2 1 µg/ml) [1]	inhibition of FcεRI-induced serotonin release, first RTIIBp58 clone (GL183 1 µg/ml, IgE 10^-3 dilution, GAM) [1]	inhibition of FcεRI-induced serotonin release, second RTIIBp58 clone (GL183 1 µg/ml, IgE 10^-3 dilution, GAM) [1]
CC[C@H](C)[C@H](NC(=O)CCCC[C@@H]1SC[C@@H]2NC(=O)N[C@@H]21)C(=O)N[C@@H](CC(C)C)C(=O)N[C@@H](C)C(=O)N[C@H](C(=O)N[C@@H](CCC(=O)O)C(=O)N[C@@H](CCC(N)=O)C(=O)N[C@@H](CCC(=O)O)C(=O)N[C@H](C(=O)N[C@H](C(=O)N[C@@H](Cc1ccc(OP(=O)(O)O)cc1)C(=O)N[C@@H](C)C(=O)N[C@@H](CCC(=O)O)C(=O)N[C@@H](CC(C)C)C(=O)N[C@@H](CC(N)=O)C(=O)N[C@@H](CC(C)C)C(=O)O)[C@@H](C)O)[C@@H](C)CC)[C@@H](C)O [NKG2-A C-terminal ITIM, ILATEQEIT40 AELNL] (HELM PEPTIDE1{[O=C1N[C@H]2[C@H](CS[C@H]2CCCCC(=O)[*:2])N1].I.L.A.T.E.Q.E.I.T.[O=C([C@H](Cc1ccc(OP(=O)(O)O)cc1)N[*:1])[*:2]].A.E.L.N.L}$$$$V2.0; N-terminus and C-terminus assumed)	0.00132 s⁻¹	840000 M⁻¹ s⁻¹	0.00117 s⁻¹	410000 M⁻¹ s⁻¹	–	–	–	–	–	–
CC[C@H](C)[C@H](NC(=O)[C@@H](NC(=O)CNC(=O)[C@H](CCC(N)=O)NC(=O)[C@H](CC(N)=O)NC(=O)[C@H](CC(=O)O)NC(=O)[C@H](CCSC)NC(=O)CCCC[C@@H]1SC[C@@H]2NC(=O)N[C@@H]21)C(C)C)C(=O)N[C@@H](Cc1ccc(OP(=O)(O)O)cc1)C(=O)N[C@@H](CO)C(=O)N[C@@H](CC(=O)O)C(=O)N[C@@H](CC(C)C)C(=O)N[C@@H](CC(N)=O)C(=O)N[C@@H](CC(C)C)C(=O)O [NKG2-A N-terminal ITIM, MDNQGVIY8 SDLNL] (HELM PEPTIDE1{[O=C1N[C@H]2[C@H](CS[C@H]2CCCCC(=O)[*:2])N1].M.D.N.Q.G.V.I.[O=C([C@H](Cc1ccc(OP(=O)(O)O)cc1)N[*:1])[*:2]].S.D.L.N.L}$$$$V2.0)	0.00142 s⁻¹	1.03e+06 M⁻¹ s⁻¹	0.00189 s⁻¹	390000 M⁻¹ s⁻¹	1.38 nM	4.8 nM	–	–	–	–
GL183 F(ab')2	–	–	–	–	–	–	39.3%	14.1%	72.8%	55.8%
